“Also recorded” adds a separate entry of the source. Read-outs that look alike come from different tables or passages of the source.
Tests used:
[1] = biological target: T1, cannabinoidergic CB2 receptors (Rattus norvegicus, UniProt Q9QZN9); assay: Radioreceptorial binding, [3H]-CP-55,940 competition, rat spleen membranes
T1 construct: the brain in toto (cerebellum excluded) and the spleen were rapidly dissected and maintained in ice; from tissue; host or cells: rat spleen, membrane preparation
T1 sequence (Q9QZN9 1-360): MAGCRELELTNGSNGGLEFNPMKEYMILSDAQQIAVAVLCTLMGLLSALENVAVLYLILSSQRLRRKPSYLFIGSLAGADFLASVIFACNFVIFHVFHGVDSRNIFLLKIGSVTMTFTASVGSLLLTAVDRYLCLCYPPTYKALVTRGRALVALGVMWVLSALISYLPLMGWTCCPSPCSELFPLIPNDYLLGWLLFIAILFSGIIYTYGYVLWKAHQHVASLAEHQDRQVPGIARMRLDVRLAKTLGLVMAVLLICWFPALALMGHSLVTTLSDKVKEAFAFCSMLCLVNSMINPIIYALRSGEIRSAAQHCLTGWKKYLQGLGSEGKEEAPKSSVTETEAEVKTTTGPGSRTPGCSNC
Method: (§1) The affinity of the synthesized compounds towards the cannabinoidergic CB1 and CB2 receptors was evaluated in vitro through radioreceptorial binding studies by utilizing the following method.
(§2) The receptorial binding technique allows indeed to establish if and with what affinity and specificity a determined compound binds itself to a particular receptor. To evaluate the possible affinity of a determined compound towards a particular receptor it is necessary to make to compete (in a particular preparation of the tissue in which those determined receptors are present) the compound to be tested with another compound whose affinity is known and whose molecule was rendered radioactive. […] The reading of the radioactivity present in the receptor-compound complex allows furthermore to calculate with extreme precision the amount of compound bound to the receptor. […] By repeating the same experimental scheme it is possible to evaluate the affinity of the compound towards other kinds of receptors and establish then the specificity degree.
(§3) Food and water were available ad libitum.
(§4) The animals were sacrificed by cervical dislocation, the brain in toto (cerebellum excluded) and the spleen were rapidly dissected and maintained in ice.
(§5) The tissue was homogenized in 15 volumes (weight/volume) of TME buffer (50 mM Tris, 1 mM EDTA e 3 mM MgCl2, pH 7.4) by an Ultra-Turrax and centrifuged for 10 minutes at 1086×g in a centrifuge cooled at 4° C. The resulting supernatant was centrifuged at 45,000×g for 30 min at 4° C. by using a Beckman SW41 rotor and the final pellet was resuspended in 50 volumes of TME.
(§6) The obtained membranes (50-80 μg of proteins) were incubated in the presence of 1 nM di[^3H]-CP55,940 for 1 h at 30° C. in a final volume of 0.5 ml of TME buffer containing 5 mg/ml of bovine serum albumin (BSA). The non specific binding was measured in the presence of CP55,940 at the 1 μM concentration.
(§7) All the experiments were carried out in polypropylene test tubes pretreated with Sigma-Cote (Sigma Chemical Co. Ltd., Poole, UK) to reduce the non specific binding.
(§8) For the building of the competitive inhibition binding curves eight different concentrations of each compound were used.
(§9) Incubation was interrupted by addition of TME buffer (at 4° C.) containing 5 mg/ml of BSA and filtration under vacuum through Whatman GFC filters pretreated with 0.5% of polyethylamine (PEI) and by using a filtering apparatus (Brandell, Gaithersburg, Md., USA). Filters were washed 3 times with 5 ml of Tris HCl buffer (pH 7.4, 4° C.) containing 1 mg/ml of BSA and singly placed in plastic vials containing 4 ml of scintillating liquid (Ultima Gold MV, Packard).
(§10) The radioactivity present in the filters was measured by a scintillator spectrophotometer (Tricarb 2100, Packard, Meridien, USA).
(§11) The protein determination was carried out by the Bradford method by using the protocol and the reactants supplied by Bio-Rad (Milano, Italia).
(§12) The affinity of the compounds towards the CB1 and CB2 receptors was expressed in Ki terms.

[2] = biological target: T2, cannabinoidergic CB1 receptors (Rattus norvegicus, UniProt P20272); assay: Radioreceptorial binding, [3H]-CP-55,940 competition, rat brain membranes
T2 construct: the brain in toto (cerebellum excluded) and the spleen were rapidly dissected and maintained in ice; from tissue; host or cells: rat brain (cerebellum excluded), membrane preparation
T2 sequence (P20272 whole entry): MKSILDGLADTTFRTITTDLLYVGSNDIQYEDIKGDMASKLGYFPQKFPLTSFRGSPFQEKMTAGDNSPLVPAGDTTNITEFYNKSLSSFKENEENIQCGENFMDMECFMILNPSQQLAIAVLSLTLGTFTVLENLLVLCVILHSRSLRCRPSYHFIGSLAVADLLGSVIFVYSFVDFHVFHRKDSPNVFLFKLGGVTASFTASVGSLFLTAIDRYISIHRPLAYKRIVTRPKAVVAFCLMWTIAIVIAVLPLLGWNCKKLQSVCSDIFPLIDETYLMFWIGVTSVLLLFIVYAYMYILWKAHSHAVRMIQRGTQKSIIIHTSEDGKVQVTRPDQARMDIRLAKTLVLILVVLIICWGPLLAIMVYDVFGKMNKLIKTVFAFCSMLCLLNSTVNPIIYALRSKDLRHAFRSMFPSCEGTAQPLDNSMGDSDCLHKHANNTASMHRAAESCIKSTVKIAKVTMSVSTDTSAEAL
Method: as §1, §2, §3, §4, §5, §6, §7, §8, §9, §10, §11, §12

rat intestinal motility [3] = assay: Intestinal motility, Upper Gut Transit Test, compound alone; format: in vivo; conditions: control 50%
Method: (§13) To evaluate the activity in vivo of the compounds (I) object of the present invention, functional tests were carried out directed to the evaluation of the effect of said compounds on the rat intestinal motility. It was indeed shown the involvement of the cannabinoidergic CB1 receptors in the intestinal motility regulation in rat (R. G. Pertwee et al; Br. J. Pharmacol.; 1996, 118, 2199-2205). In particular, the CB1 receptor agonists slacken the gastrointestinal motility; antagonist compounds of the same receptors have instead a prokinetic effect on the gastrointestinal transit (G. Colombo et al.; Eur. J. Pharmacol.; 1998, 344, 67-69; M. A. Casu et al.; Eur. J. Pharmacol.; 2003, 459, 97-105).
(§14) The evaluation of the constipating or prokinetic effect of the compounds was carried out by the Upper Gut Transit Test method on the basis of the procedure defined and ratified by Y. Nagakura et al.; Eur. J. Pharmacol.; 1996, 311, 67-72. The method, which allows to measure the motility of the stomach and of the first intestine tract (small or little intestine), requires: • the administration of the compound to be tested by i.p. route; • the administration of carmine red (marker not directly absorbable from the stomach) by intragastric route through a metal probe, after 20 minutes from the administration of the compound to be tested; • the rat sacrifice by cervical dislocation after a pre-fixed time (30 minutes) starting from the administration time; • the intestine explant from pylorus to the ileo-cecal valve; • the determination of the intestinal part crossed by the marker; • the data processing to determine the percentage of crossed part with respect to the total length of the small intestine.
With respect to the control (physiological solution or carrier wherein the compounds to be tested were solubilized or dispersed), the administration of CB1 agonist compounds implies an intestinal transit percentage reduction; an opposite effect is noticed in case of antagonist compounds. The latter are therefore capable to cancel the constipating effect of CB1 agonist compounds.
Each test was repeated on ten animals; the results reported in the Examples are the average of the results obtained with ten animals.

rat = conditions: concluded from the hypothermia tests
Method: The rectal temperature in the rat was determined by an electronic thermometer inserted at a 2 mm depth. The measurements were carried out on rats acclimated for one hour. […]
Each test was repeated on ten animals; the reported results are the average of the results obtained with the ten animals.

rat intestinal motility [4] = assay: Intestinal motility, Upper Gut Transit Test, antagonism of the constipating action of WIN 55,212-2; format: in vivo; conditions: WIN alone 25%
Method: as §13, §14
With respect to the control (physiological solution or carrier wherein the compounds to be tested were solubilized or dispersed), the administration of CB1 agonist compounds implies an intestinal transit percentage reduction; an opposite effect is noticed in case of antagonist compounds. The latter are therefore capable to cancel the constipating effect of CB1 agonist compounds. […]

Row | SMILES | Ki ([1]; rat spleen membranes, 1 nM [3H]-CP55,940, read-out: CB2 (spleen) Ki) [nM] | Ki ([2]; rat brain membranes, 1 nM [3H]-CP55,940, read-out: CB1 (brain) Ki) [nM] | intestinal portion run by the marker with respect to the total intestine length (rat intestinal motility [3]; compound 5 mg/kg i.p.) [%] | melting point [°C] | passage of the hemato-encephalic barrier (rat) | intestinal portion run by the marker with respect to the total intestine length (rat intestinal motility [4]; compound 1.5 mg/kg before WIN 55,212-2 0.5 mg/kg) [%] | Ki [1] [nM] | Ki [2] [nM] | intestinal portion run by the marker with respect to the total intestine length (rat intestinal motility [3]; compound 1 mg/kg i.p.) [%] | intestinal portion run by the marker with respect to the total intestine length (rat intestinal motility [4]; compound 0.3 mg/kg before WIN 55,212-2 0.5 mg/kg) [%]
1 | O=C(NN1CCCC1)c1nn(-c2ccc(Cl)cc2Cl)c2c1CCc1sc(Cl)cc1-2 [Example 3.5, N-pyrrolidinyl-7-chloro-1-(2′,4′-dichlorophenyl)-4,5-dihydro-1H-thieno[2,3-g]indazol-3-carboxamide] | 243 ± 14 | 137 ± 12 | 67 | 228 | not able to pass the hemato-encephalic barrier | 50 |  |  |  | 
2 | O=C(NN1CCCCCC1)c1nn(-c2ccc(Cl)cc2Cl)c2c1CCc1sc(Cl)cc1-2 [Example 3.6, N-homopiperidinyl-7-chloro-1-(2′,4′-dichlorophenyl)-4,5-dihydro-1H-thieno[2,3-g]indazol-3-carboxamide] |  |  | 75 | 181 to 182 | unable to pass the hemato-encephalic barrier; also recorded: not capable to pass the hemato-encephalic barrier |  | 20.8 ± 1.4 | 9.83 ± 0.72 | 65 | 50

From patent US8106218B2, “Pharmaceutical compounds” (Neuroscienze Pharmaness S.C. A R.L., priority 2004, dated 2012)
